Measured values taken from patent publication US20190315806A1, “POLYMYXIN DERIVATIVE, PREPARATION METHOD AND APPLICATION THEREOF” (priority 2016, published 2019).
≈ marks a conversion by molar mass, not a printed value. Where a SMILES comes first, the peptide text is derived from it. Bridges are numbered along the chain shown (N, C = ends). [ ]: non-standard residue; d: D form. The star is where a group is joined. Heptanoyl(6-Me) = CC(C)CCCCC(=O)*; Octanoyl(7-Me) = CC(C)CCCCCC(=O)*; X2 = CC[C@H](C)CCCCC(=O)*; dDab = NCC[C@@H](N)C(=O)O; Heptanoyl = CCCCCCC(=O)*; Dab = NCC[C@H](N)C(=O)O

How the values were obtained:
Format in all cases: cell-based
[1] = test system: Klebsiella pneumoniae ATCC BAA-2146 (NDM-1); experiment: Antibacterial activity, MIC by dish double dilution method; conditions: ATCC BAA-2146
Outline: (§1)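 Agar dilution per CLSI; drug mixed into molten agar at twofold steps from 0.03 to 128 μg/mL (final). Inoculum 10^4 CFU/dot, multipoint. Incubation 35° C., 18–24 h; MIC = lowest concentration with no colonies.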

[2] = Nephrotoxicity test, renal cytotoxicity by MTT method; conditions: African green monkey
Experimental: African green monkey kidney cells (Vero cells) were cultured in MEM medium (Hyclone), 10% fetal calf serum (Invitrogen) was added before use, cultured at 37° C. under 5% CO2.
Experiment was carried out using MTT method. After digestion, cells in logarithmic growth phase were counted, then the cells were inoculated in a 96-well culture plate. After incubation for 24 h to be adherent, cells were treated with a concentration gradient of a compound of the invention (e.g., a compound prepared in the Embodiments) and the controls. After 72 h, the culture solution was removed, 100 uL of MTT reagent at a concentration of 0.5 mg/ml was added, the medium was removed after incubating for 3 hours in a 37° C. incubator. Add 150 μL DMSO solvent to each well, mix for 3 min, after which the absorbance at 570 nm (A) was measured with a microplate reader.
Cell viability %=(Adosed cell−Abackground)/(Acontrol cell−Abackground)×100%. The average value of 3 parallel wells was taken for each detection point, and the inhibition curve was drawn to calculate the IC50 value.
The African green monkey kidney cells (Vero cells) used in the experiment were from the Cell Resource Center of the Institute of Basic Medicine, Chinese Academy of Medical Sciences.

[3] = test system: Escherichia coli ATCC 25922; conditions: ATCC 25922
Outline: as §1

[4] = test system: Staphylococcus epidermidis ATCC 12228; conditions: ATCC 12228
Outline: as §1

[5] = test system: Pseudomonas aeruginosa ATCC 27853; conditions: ATCC 27853
Outline: as §1

[6] = test system: Acinetobacter baumannii ATCC 19606; conditions: ATCC 19606
Outline: as §1

Structure (SMILES)	MIC K. pneumoniae ATCC BAA-2146 (NDM-1) [1] [µg/mL]	IC50 at 72 h [2] [µg/mL]	MIC E. coli ATCC 25922 [3] [µg/mL]	MIC S. epidermidis ATCC 12228 [4] [µg/mL]	MIC P. aeruginosa ATCC 27853 [5] [µg/mL]	MIC A. baumannii ATCC 19606 [6] [µg/mL]
CCCCCCC(=O)N[C@@H](CCN)C(=O)N[C@H](C(=O)N[C@@H](CCN)C(=O)N[C@H]1CCNC(=O)[C@H]([C@@H](C)O)NC(=O)[C@H](CCN)NC(=O)[C@H](CCN)NC(=O)[C@H](CC(C)C)NC(=O)[C@@H](CC(C)C)NC(=O)[C@H](CCN)NC1=O)[C@@H](C)O [Compound 82, heptanoyl-Dab-Thr-Dab-ring(4-10)[Dab-Dab-D-Leu-Leu-Dab-Dab-Thr]] (Heptanoyl-[Dab]T[Dab][Dab][Dab][dL]L[Dab][Dab]T; lactam 4-C)	0.5 (≈ 0.438 µM)	216 ± 16.1 (≈ 189 µM)	1 (≈ 0.876 µM)	>128	1 (≈ 0.876 µM)	2 (≈ 1.75 µM)
CC(C)CCCCCC(=O)N[C@@H](CCN)C(=O)N[C@H](C(=O)N[C@@H](CCN)C(=O)N[C@H]1CCNC(=O)[C@H]([C@@H](C)O)NC(=O)[C@H](CCN)NC(=O)[C@H](CCN)NC(=O)[C@H](CC(C)C)NC(=O)[C@@H](CC(C)C)NC(=O)[C@H](CCN)NC1=O)[C@@H](C)O [Compound 86, 7-methyloctanoyl-Dab-Thr-Dab-ring(4-10)[Dab-Dab-D-Leu-Leu-Dab-Dab-Thr]] ({Octanoyl(7-Me)}-[Dab]T[Dab][Dab][Dab][dL]L[Dab][Dab]T; lactam 4-C)	1 (≈ 0.855 µM)	87 ± 6.98 (≈ 74.4 µM)	1 (≈ 0.855 µM)	64 (≈ 54.7 µM)	2 (≈ 1.71 µM)	1 (≈ 0.855 µM)
CC(C)CCCCC(=O)N[C@@H](CCN)C(=O)N[C@H](C(=O)N[C@@H](CCN)C(=O)N[C@H]1CCNC(=O)[C@H]([C@@H](C)O)NC(=O)[C@H](CCN)NC(=O)[C@H](CCN)NC(=O)[C@H]([C@@H](C)O)NC(=O)[C@@H](CC(C)C)NC(=O)[C@H](CCN)NC1=O)[C@@H](C)O [Compound 103, 6-methylheptanoyl-Dab-Thr-Dab-ring(4-10)[Dab-Dab-D-Leu-Thr-Dab-Dab-Thr]] ({Heptanoyl(6-Me)}-[Dab]T[Dab][Dab][Dab][dL]T[Dab][Dab]T; lactam 4-C)	0.5 (≈ 0.437 µM)	276 ± 17.7 (≈ 241 µM)	0.5 (≈ 0.437 µM)	>128	0.5 (≈ 0.437 µM)	1 (≈ 0.875 µM)
CC[C@H](C)CCCCC(=O)N[C@@H](CCN)C(=O)N[C@H](C(=O)N[C@H](CO)C(=O)N[C@H]1CCNC(=O)[C@H]([C@@H](C)O)NC(=O)[C@H](CCN)NC(=O)[C@H](CCN)NC(=O)[C@H]([C@@H](C)O)NC(=O)[C@@H](Cc2ccccc2)NC(=O)[C@H](CCN)NC1=O)[C@@H](C)O [Compound 115, (S)-6-methyloctanoyl-Dab-Thr-D-Ser-ring(4-10)[Dab-Dab-D-Phe-Thr-Dab-Dab-Thr]] (X2-[Dab]T[dS][Dab][Dab][dF]T[Dab][Dab]T; lactam 4-C)	0.5 (≈ 0.424 µM)	160 ± 23.4 (≈ 136 µM)	0.25 (≈ 0.212 µM)	>128	2 (≈ 1.7 µM)	0.12 (≈ 0.102 µM)
CC(C)CCCCC(=O)N[C@@H](CCN)C(=O)N[C@H](C(=O)N[C@H](CO)C(=O)N[C@H]1CCNC(=O)[C@H]([C@@H](C)O)NC(=O)[C@H](CCN)NC(=O)[C@H](CCN)NC(=O)[C@H]([C@@H](C)O)NC(=O)[C@@H](Cc2ccccc2)NC(=O)[C@H](CCN)NC1=O)[C@@H](C)O [Compound 116, 6-methylheptanoyl-Dab-Thr-D-Ser-ring(4-10)[Dab-Dab-D-Phe-Thr-Dab-Dab-Thr]] ({Heptanoyl(6-Me)}-[Dab]T[dS][Dab][Dab][dF]T[Dab][Dab]T; lactam 4-C)	1 (≈ 0.859 µM)	> 500	0.25 (≈ 0.215 µM)	>128	2 (≈ 1.72 µM)	0.25 (≈ 0.215 µM)
CC[C@H](C)CCCCC(=O)N[C@@H](CCN)C(=O)N[C@H](C(=O)N[C@@H](CCN)C(=O)N[C@H]1CCNC(=O)[C@H](CC(C)C)NC(=O)[C@H](CCN)NC(=O)[C@H](CCN)NC(=O)[C@H](CC(C)C)NC(=O)[C@@H](Cc2ccccc2)NC(=O)[C@H](CCN)NC1=O)[C@@H](C)O [Compound 127, (S)-6-methyloctanoyl-Dab-Thr-Dab-ring(4-10)[Dab-Dab-D-Phe-Lue-Dab-Dab-Lue]] (X2-[Dab]T[Dab][Dab][Dab][dF]L[Dab][Dab]L; lactam 4-C)	4 (≈ 3.29 µM)	17.2 ± 2.16 (≈ 14.1 µM)	4 (≈ 3.29 µM)	8 (≈ 6.58 µM)	4 (≈ 3.29 µM)	2 (≈ 1.65 µM)
CC(C)CCCCC(=O)N[C@@H](CCN)C(=O)N[C@H](C(=O)N[C@@H](CCN)C(=O)N[C@H]1CCNC(=O)[C@H](CC(C)C)NC(=O)[C@H](CCN)NC(=O)[C@H](CCN)NC(=O)[C@H](CC(C)C)NC(=O)[C@@H](Cc2ccccc2)NC(=O)[C@H](CCN)NC1=O)[C@@H](C)O [Compound 128, 6-methylheptanoyl-Dab-Thr-Dab-ring(4-10)[Dab-Dab-D-Phe-Lue-Dab-Dab-Lue]] ({Heptanoyl(6-Me)}-[Dab]T[Dab][Dab][Dab][dF]L[Dab][Dab]L; lactam 4-C)	4 (≈ 3.33 µM)	30.1 ± 2.59 (≈ 25 µM)	4 (≈ 3.33 µM)	16 (≈ 13.3 µM)	4 (≈ 3.33 µM)	4 (≈ 3.33 µM)
CC[C@H](C)CCCCC(=O)N[C@@H](CCN)C(=O)N[C@H](C(=O)N[C@H](CCN)C(=O)N[C@H]1CCNC(=O)[C@H]([C@@H](C)O)NC(=O)[C@H](CCN)NC(=O)[C@H](CCN)NC(=O)[C@H]([C@@H](C)O)NC(=O)[C@@H](Cc2ccccc2)NC(=O)[C@H](CCN)NC1=O)[C@@H](C)O [Compound 143, (S)-6-methyloctanoyl-Dab-Thr-D-Dab-ring(4-10)[Dab-Dab-D-Phe-Thr-Dab-Dab-Thr]] (X2-[Dab]T[dDab][Dab][Dab][dF]T[Dab][Dab]T; lactam 4-C)	1 (≈ 0.839 µM)	142 ± 15.2 (≈ 119 µM)	0.5 (≈ 0.42 µM)	>128	1 (≈ 0.839 µM)	1 (≈ 0.839 µM)
